Test results: the supplement of paper PMC10307832

Assays:
Experiment in all cases: relative viability (nuclei count vs DMSO), 5 days (fraction); higher = more cells survive
[1] = compound: C1COCCN1C2=NC(=NC3=C2OC4=C3C=CC=N4)C5=CC(=CC=C5)NC(=O)C6=CN=C(C=C6)N + COc1cc2c(Oc3ccc(NC(=O)C4(C(=O)Nc5ccc(F)cc5)CC4)cc3F)ccnc2cc1OCCCN1CCOCC1 [Foretinib] (partner 0.25 µM)
Procedure, shortened: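 Lung cancer cell lines in 1536-well plates got either a single drug or a fixed anchor-drug dose together with five library-drug doses (not always all listed) in √10 steps, by pin tool, on the day after seeding. Nuclei were counted after 5 days, and relative viability is the treated-to-vehicle ratio of nuclei counts. Values are medians of duplicate plates.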

[2] = compound: CN1CCC(CNc2ccc3ncc(-c4cccc(OC(F)(F)F)c4)n3n2)CC1 [SGI-1776]
Procedure, shortened: (§1)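 A plate was accepted only when its control CV was below 25% and the cells had doubled at least once. Viability is defined from nuclear counts as treated wells divided by vehicle wells, with the median taken across plates. That median covers lung cancer cell lines grown in 1536-well plates, dosed by pinning at five √10-spaced library-drug concentrations, and counted in MetaXpress from 4× Hoechst images after 5 days.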

[3] = compound: Nc1ccccc1NC(=O)c1ccc(CNC(=O)OCc2cccnc2)cc1 [Entinostat]
Procedure, shortened: as §1

[4] = compound: C1COCCN1C2=NC(=NC3=C2OC4=C3C=CC=N4)C5=CC(=CC=C5)NC(=O)C6=CN=C(C=C6)N
Procedure, shortened: as §1

LC-2-ad
relative viability ([1]; first compound 0.02 µM): 0.858 | relative viability ([1]; first compound 0.06325 µM): 0.984 | relative viability ([1]; first compound 0.2 µM): 0.977 | relative viability ([1]; first compound 0.6325 µM): 1.06 | relative viability ([1]; first compound 2 µM): 0.9 | relative viability ([2]; 0.08 µM): 0.984 | relative viability ([2]; 0.8 µM): 1.05 | relative viability ([2]; 2.53 µM): 1.09 | relative viability ([2]; 8 µM): 0.815 | relative viability ([3]; 0.02 µM): 1.02 | relative viability ([3]; 0.06325 µM): 0.972 | relative viability ([3]; 0.2 µM): 0.942 | relative viability ([3]; 0.6325 µM): 0.48 | relative viability ([3]; 2 µM): 0.315 | relative viability ([4]; 0.02 µM): 0.965 | relative viability ([4]; 0.06325 µM): 1.06 | relative viability ([4]; 0.2 µM): 0.937 | relative viability ([4]; 0.6325 µM): 0.932 | relative viability ([4]; 2 µM): 0.788

ABC-1
relative viability ([1]; first compound 0.02 µM): 1.09 | relative viability ([1]; first compound 0.06325 µM): 1.07 | relative viability ([1]; first compound 0.2 µM): 0.996 | relative viability ([1]; first compound 0.6325 µM): 1.04 | relative viability ([1]; first compound 2 µM): 0.884 | relative viability ([2]; 0.08 µM): 1.02 | relative viability ([2]; 0.8 µM): 0.916 | relative viability ([2]; 2.53 µM): 0.835 | relative viability ([2]; 8 µM): 0.897 | relative viability ([3]; 0.02 µM): 1.01 | relative viability ([3]; 0.06325 µM): 1.05 | relative viability ([3]; 0.2 µM): 1.15 | relative viability ([3]; 0.6325 µM): 0.808 | relative viability ([3]; 2 µM): 0.398 | relative viability ([4]; 0.02 µM): 1.09 | relative viability ([4]; 0.06325 µM): 0.879 | relative viability ([4]; 0.2 µM): 0.83 | relative viability ([4]; 0.6325 µM): 1.1 | relative viability ([4]; 2 µM): 0.927

NCI-H596
relative viability ([1]; first compound 0.02 µM): 1.13 | relative viability ([1]; first compound 0.06325 µM): 0.813 | relative viability ([1]; first compound 0.2 µM): 0.893 | relative viability ([1]; first compound 0.6325 µM): 0.709 | relative viability ([1]; first compound 2 µM): 0.616 | relative viability ([2]; 0.08 µM): 0.943 | relative viability ([2]; 0.8 µM): 1.11 | relative viability ([2]; 2.53 µM): 0.869 | relative viability ([2]; 8 µM): 0.731 | relative viability ([3]; 0.02 µM): 1.03 | relative viability ([3]; 0.06325 µM): 0.937 | relative viability ([3]; 0.2 µM): 0.975 | relative viability ([3]; 0.6325 µM): 0.854 | relative viability ([3]; 2 µM): 0.588 | relative viability ([4]; 0.02 µM): 0.993 | relative viability ([4]; 0.06325 µM): 1.11 | relative viability ([4]; 0.2 µM): 0.944 | relative viability ([4]; 0.6325 µM): 0.948 | relative viability ([4]; 2 µM): 0.832

NCI-H1734
relative viability ([1]; first compound 0.02 µM): 0.825 | relative viability ([1]; first compound 0.06325 µM): 0.948 | relative viability ([1]; first compound 0.2 µM): 0.695 | relative viability ([1]; first compound 0.6325 µM): 0.804 | relative viability ([1]; first compound 2 µM): 0.563 | relative viability ([2]; 0.08 µM): 0.946 | relative viability ([2]; 0.8 µM): 0.945 | relative viability ([2]; 2.53 µM): 1.04 | relative viability ([2]; 8 µM): 0.842 | relative viability ([3]; 0.02 µM): 1.04 | relative viability ([3]; 0.06325 µM): 1.16 | relative viability ([3]; 0.2 µM): 1.04 | relative viability ([3]; 0.6325 µM): 0.862 | relative viability ([3]; 2 µM): 0.628 | relative viability ([4]; 0.02 µM): 0.994 | relative viability ([4]; 0.06325 µM): 1.06 | relative viability ([4]; 0.2 µM): 0.929 | relative viability ([4]; 0.6325 µM): 0.931 | relative viability ([4]; 2 µM): 0.613

LOU-NH91
relative viability ([1]; first compound 0.02 µM): 0.946 | relative viability ([1]; first compound 0.06325 µM): 0.952 | relative viability ([1]; first compound 0.2 µM): 0.901 | relative viability ([1]; first compound 0.6325 µM): 0.925 | relative viability ([1]; first compound 2 µM): 0.845 | relative viability ([2]; 0.08 µM): 1.02 | relative viability ([2]; 0.8 µM): 1.03 | relative viability ([2]; 2.53 µM): 0.969 | relative viability ([2]; 8 µM): 0.713 | relative viability ([3]; 0.02 µM): 1.05 | relative viability ([3]; 0.06325 µM): 1.11 | relative viability ([3]; 0.2 µM): 1 | relative viability ([3]; 0.6325 µM): 0.897 | relative viability ([3]; 2 µM): 0.739 | relative viability ([4]; 0.02 µM): 0.955 | relative viability ([4]; 0.06325 µM): 1.01 | relative viability ([4]; 0.2 µM): 0.948 | relative viability ([4]; 0.6325 µM): 0.925 | relative viability ([4]; 2 µM): 0.897

NCI-H2170
relative viability ([1]; first compound 0.02 µM): 0.953 | relative viability ([1]; first compound 0.06325 µM): 0.843 | relative viability ([1]; first compound 0.2 µM): 1.05 | relative viability ([1]; first compound 0.6325 µM): 1.07 | relative viability ([1]; first compound 2 µM): 0.68 | relative viability ([2]; 0.08 µM): 0.947 | relative viability ([2]; 0.8 µM): 1 | relative viability ([2]; 2.53 µM): 0.961 | relative viability ([2]; 8 µM): 0.893 | relative viability ([3]; 0.02 µM): 0.995 | relative viability ([3]; 0.06325 µM): 0.996 | relative viability ([3]; 0.2 µM): 0.984 | relative viability ([3]; 0.6325 µM): 0.708 | relative viability ([3]; 2 µM): 0.525 | relative viability ([4]; 0.02 µM): 1 | relative viability ([4]; 0.06325 µM): 1.07 | relative viability ([4]; 0.2 µM): 1.06 | relative viability ([4]; 0.6325 µM): 0.995 | relative viability ([4]; 2 µM): 0.773

NCI-H1793
relative viability ([1]; first compound 0.02 µM): 0.564 | relative viability ([1]; first compound 0.06325 µM): 0.843 | relative viability ([1]; first compound 0.2 µM): 0.59 | relative viability ([1]; first compound 0.6325 µM): 0.548 | relative viability ([1]; first compound 2 µM): 0.391 | relative viability ([2]; 0.08 µM): 0.815 | relative viability ([2]; 0.8 µM): 1.31 | relative viability ([2]; 2.53 µM): 0.931 | relative viability ([2]; 8 µM): 0.783 | relative viability ([3]; 0.02 µM): 1.03 | relative viability ([3]; 0.06325 µM): 1.03 | relative viability ([3]; 0.2 µM): 0.966 | relative viability ([3]; 0.6325 µM): 0.488 | relative viability ([3]; 2 µM): 0.405 | relative viability ([4]; 0.02 µM): 0.822 | relative viability ([4]; 0.06325 µM): 1.01 | relative viability ([4]; 0.2 µM): 0.793 | relative viability ([4]; 0.6325 µM): 0.876 | relative viability ([4]; 2 µM): 0.644

NCI-H322M
relative viability ([1]; first compound 0.02 µM): 0.919 | relative viability ([1]; first compound 0.06325 µM): 0.918 | relative viability ([1]; first compound 0.2 µM): 0.935 | relative viability ([1]; first compound 0.6325 µM): 0.849 | relative viability ([1]; first compound 2 µM): 0.686 | relative viability ([2]; 0.08 µM): 0.975 | relative viability ([2]; 0.8 µM): 1.01 | relative viability ([2]; 2.53 µM): 1.05 | relative viability ([2]; 8 µM): 0.69 | relative viability ([3]; 0.02 µM): 1.02 | relative viability ([3]; 0.06325 µM): 1.11 | relative viability ([3]; 0.2 µM): 1.14 | relative viability ([3]; 0.6325 µM): 0.961 | relative viability ([3]; 2 µM): 0.859 | relative viability ([4]; 0.02 µM): 0.903 | relative viability ([4]; 0.06325 µM): 0.923 | relative viability ([4]; 0.2 µM): 0.944 | relative viability ([4]; 0.6325 µM): 0.854 | relative viability ([4]; 2 µM): 0.725

PC-3 [JPC-3]
relative viability ([1]; first compound 0.02 µM): 1.14 | relative viability ([1]; first compound 0.06325 µM): 1.05 | relative viability ([1]; first compound 0.2 µM): 0.991 | relative viability ([1]; first compound 0.6325 µM): 1.07 | relative viability ([1]; first compound 2 µM): 0.772 | relative viability ([2]; 0.08 µM): 1.07 | relative viability ([2]; 0.8 µM): 1.09 | relative viability ([2]; 2.53 µM): 1.01 | relative viability ([2]; 8 µM): 0.805 | relative viability ([3]; 0.02 µM): 1.03 | relative viability ([3]; 0.06325 µM): 1.01 | relative viability ([3]; 0.2 µM): 1.02 | relative viability ([3]; 0.6325 µM): 0.57 | relative viability ([3]; 2 µM): 0.488 | relative viability ([4]; 0.02 µM): 1.06 | relative viability ([4]; 0.06325 µM): 1.05 | relative viability ([4]; 0.2 µM): 1.06 | relative viability ([4]; 0.6325 µM): 1.03 | relative viability ([4]; 2 µM): 0.927

EPLC-272H
relative viability ([1]; first compound 0.02 µM): 0.648 | relative viability ([1]; first compound 0.06325 µM): 0.776 | relative viability ([1]; first compound 0.2 µM): 0.66 | relative viability ([1]; first compound 0.6325 µM): 0.542 | relative viability ([1]; first compound 2 µM): 0.476 | relative viability ([2]; 0.08 µM): 1.05 | relative viability ([2]; 0.8 µM): 1.1 | relative viability ([2]; 2.53 µM): 1.29 | relative viability ([2]; 8 µM): 0.766 | relative viability ([3]; 0.02 µM): 0.985 | relative viability ([3]; 0.06325 µM): 0.91 | relative viability ([3]; 0.2 µM): 0.883 | relative viability ([3]; 0.6325 µM): 0.406 | relative viability ([3]; 2 µM): 0.296 | relative viability ([4]; 0.02 µM): 0.907 | relative viability ([4]; 0.06325 µM): 0.987 | relative viability ([4]; 0.2 µM): 0.889 | relative viability ([4]; 0.6325 µM): 0.715 | relative viability ([4]; 2 µM): 0.717

A-427
relative viability ([1]; first compound 0.02 µM): 1.11 | relative viability ([1]; first compound 0.06325 µM): 1.28 | relative viability ([1]; first compound 0.2 µM): 1.16 | relative viability ([1]; first compound 0.6325 µM): 0.855 | relative viability ([1]; first compound 2 µM): 0.676 | relative viability ([2]; 0.08 µM): 1.08 | relative viability ([2]; 0.8 µM): 1.08 | relative viability ([2]; 2.53 µM): 0.975 | relative viability ([2]; 8 µM): 0.84 | relative viability ([3]; 0.02 µM): 1.1 | relative viability ([3]; 0.06325 µM): 1.12 | relative viability ([3]; 0.2 µM): 0.978 | relative viability ([3]; 0.6325 µM): 0.878 | relative viability ([3]; 2 µM): 0.619 | relative viability ([4]; 0.02 µM): 0.971 | relative viability ([4]; 0.06325 µM): 0.994 | relative viability ([4]; 0.2 µM): 0.909 | relative viability ([4]; 0.6325 µM): 0.857 | relative viability ([4]; 2 µM): 0.704
